Key:
7W WT APP751 CHO cells [1] = experiment: Screening of dihydropyridine compounds of Table 2, Aβ1-40 and Aβ1-42 ELISA (Example 5); type: cell-based, Chinese hamster; conditions: for concentration of Aβ1-40 or Aβ1-42 compared to control: 3, 10, 30 and 100 μM, 24 hours (FIGS. 22A, 22B, 23A, 23B); for concentration of Aβ1-40 compared to control: 3 and 10 μM, 24 hours (FIG. 24)
Method: (§1) Chinese hamster ovary (CHO) cells, stably transfected with human APP751 (7W WT APP751 CHO cells) were used. See, e.g., Koo and Squazzo, J. Biol. Chem., Vol. 269, Issue 26, 17386-17389, July, 1994. The cells were maintained in DMEM medium supplemented with 10% fetal bovine serum and IX mixture of penicillin/streptomycin/fungizone/glutamine mixture (Cambrex, Md.) geneticin as selecting agent in 75 cm^2 cell culture flasks.
(§2) The 7W WT APP751 CHO cells were plated in 24-well cell culture plates in quadruplicate, containing 1 ml of culture medium, and treated with various calcium channel blocker compounds for 4 hours, 24 hours or 48 hours at 37° C. and 5% CO2. All test compounds were diluted in dimethyl sulfoxide (DMSO) before being added to the cultured confluent 7W WT APP751 CHO cells. The culture medium was collected and diluted 5-fold for the 4 hours assay and 50-fold for the 24 hour assay before being assayed by ELISAs for Aβ1-40 and Aβ1-42, respectively. Concentrations of Aβ1-40 and Aβ1-42, expressed in pg/ml, were determined using commercially available ELISAs (Biosource, Calif.) in a colorimetric assay using labeled antibodies detected spectrophotometrically.
The screening of dihydropyridine compounds was conducted according to the procedure described in Example 1. Each compound was added to confluent cells to a final concentration of 3, 10, 30 or 100 μM and tested. Each of these compounds was added to confluent cells to a final concentration of 3 μM (noted as “C” in FIG. 24) or 10 μM (noted as “B” in FIG. 24).

Tg APPsw mice = Tg APPsw mice given the NSAID; correlating with decreased microglial activation; cited from earlier work
7W WT APP751 CHO cells [2] = experiment: Measurement of Aβ1-40 and Aβ1-42 by ELISA after treatment with calcium channel blockers (Example 1); type: cell-based, Chinese hamster; conditions: 20 μM (FIG. 2)
Method: as §1
as §2, with “All test compounds were diluted in dimethyl sulfoxide (DMSO) before being added to the cultured confluent 7W WT APP751 CHO cells.” left out

## COCCOC(=O)C1=C(C)NC(C)=C(C(=O)OCCOC)C1c1ccccc1Cl [Example 2-19]
7W WT APP751 CHO cells [1]
  concentration of Aβ1-40 or Aβ1-42 compared to control: decreased

## CCOC(=O)C1=C(C)NC(C)=C(C(=O)OCC)C1c1ccccc1Br [Example 2-23, Diethyl 4-(2-bromophenyl)-1,4-dihydro-2,6-dimethylpyridine-3,5-dicarboxylate]
7W WT APP751 CHO cells [1]
  concentration of Aβ1-40 or Aβ1-42 compared to control: decreased

## CCOC(=O)C1=C(C)NC(C)=C(C(=O)OCC)C1c1ccccc1F [Example 2-27, Diethyl 4-(2-fluorophenyl)-1,4-dihydro-2,6-dimethylpyridine-3,5-dicarboxylate]
7W WT APP751 CHO cells [1]
  concentration of Aβ1-40 or Aβ1-42 compared to control: decreased
other
  melting point: 151 to 152.5 °C

## CC1=C(C(=O)OC(C)(C)C)C(c2ccccc2F)C(C(=O)OC(C)(C)C)=C(C)N1 [Example 2-28, Di-tert-butyl 4-(2-fluorophenyl)-1,4-dihydro-2,6-dimethylpyridine-3,5-dicarboxylate]
7W WT APP751 CHO cells [1]
  concentration of Aβ1-40 or Aβ1-42 compared to control: decreased

## CCOC(=O)C1=C(C)NC(C)=C(C(=O)OCC)C1c1ccccc1[N+](=O)[O-] [Example 2-29, Diethyl 1,4-dihydro-2,6-dimethyl-4-(2-nitrophenyl)pyridine-3,5-dicarboxylate]
7W WT APP751 CHO cells [1]
  concentration of Aβ1-40 or Aβ1-42 compared to control: decreased

## CC1=C(C(=O)OC(C)(C)C)C(c2ccccc2Br)C(C(=O)OC(C)(C)C)=C(C)N1 [Example 2-32, Di-tert-butyl 4-(2-bromophenyl)-1,4-dihydro-2,6-dimethylpyridine-3,5-dicarboxylate]
7W WT APP751 CHO cells [1]
  concentration of Aβ1-40 or Aβ1-42 compared to control: decreased

## CC1=C(C(=O)OC(C)(C)C)C(c2ccccc2[N+](=O)[O-])C(C(=O)OC(C)(C)C)=C(C)N1 [Example 2-33, Di-tert-butyl 1,4-dihydro-2,6-dimethyl-4-(2-nitrophenyl)pyridine-3,5-dicarboxylate]
7W WT APP751 CHO cells [1]
  concentration of Aβ1-40 or Aβ1-42 compared to control: decreased

## CCOC(=O)C1=C(C)NC(C)=C(C(=O)OCC)C1c1cccc(F)c1F [Example 3-22]
7W WT APP751 CHO cells [1]
  concentration of Aβ1-40 compared to control: decreased

## CC1=C(C(=O)OC(C)(C)C)C(c2cccc(F)c2F)C(C(=O)OC(C)(C)C)=C(C)N1 [Example 3-23]
7W WT APP751 CHO cells [1]
  concentration of Aβ1-40 compared to control: decreased

## CCOC(=O)C1=C(C)NC(C)=C(C(=O)OCC)C1c1ccc(Br)cc1F [Example 3-33]
7W WT APP751 CHO cells [1]
  concentration of Aβ1-40 compared to control: decreased

## CC1=C(C(=O)OC(C)(C)C)C(c2ccc(Br)cc2F)C(C(=O)OC(C)(C)C)=C(C)N1 [Example 3-34, Di-tert-butyl 4-(4-bromo-2-fluorophenyl)-1,4-dihydro-2,6-dimethylpyridine-3,5-dicarboxylate]
7W WT APP751 CHO cells [1]
  concentration of Aβ1-40 compared to control: decreased

## COCCOC(=O)C1=C(C)NC(C)=C(C(=O)OCCOC)C1c1cccc(Br)c1 [Example 3-37]
7W WT APP751 CHO cells [1]
  concentration of Aβ1-40 compared to control: decreased

## COCCOC(=O)C1=C(C)NC(C)=C(C(=O)OCCOC)C1c1ccc(Br)cc1 [Example 3-38, Bis(2-methoxyethyl) 4-(4-bromophenyl)-1,4-dihydro-2,6-dimethylpyridine-3,5-dicarboxylate]
7W WT APP751 CHO cells [1]
  concentration of Aβ1-40 compared to control: decreased

## CCOC(=O)C1=C(C)NC(C)=C(C(=O)OCC)C1c1cc(Br)ccc1F [Example 3-41, Diethyl 4-(5-bromo-2-fluorophenyl)-1,4-dihydro-2,6-dimethylpyridine-3,5-dicarboxylate]
7W WT APP751 CHO cells [1]
  concentration of Aβ1-40 compared to control: decreased

## CC1=C(C(=O)OC(C)(C)C)C(c2cc(Br)ccc2F)C(C(=O)OC(C)(C)C)=C(C)N1 [Example 3-42]
7W WT APP751 CHO cells [1]
  concentration of Aβ1-40 compared to control: decreased

## CC(C)Cc1ccc(C(C)C(=O)O)cc1 (centres unmarked) [ibuprofen]
Tg APPsw mice
  β-amyloid deposits, astrocytosis, and dystrophic neurites: reduction

## CC(C)(C)c1cc(C=C(C#N)C#N)cc(C(C)(C)C)c1O [tyrphostin A9]
7W WT APP751 CHO cells [2]
  concentration of Aβ1-40 compared to controls: significantly decreased
  concentration of Aβ1-42 compared to controls: significantly decreased
  concentration of total β-amyloid compared to controls: significantly decreased

Source: US20080058330A1, “Compounds and Combinations Thereof for Inhibiting Beta-Amyloid Production and Methods of Use Thereof” (Roskamp Research LLC, priority 2006, published 2008)
